The results in this text go back to ChEMBL document CHEMBL3745672, “Novel compounds reducing IRS-1 serine phosphorylation for treatment of diabetes” (Bioorg Med Chem Lett, 2016).

One may read the inhibition as the change of the read-out against control, counted positive when it falls. A word on the IC50: it is the concentration needed to halve the response being measured.

For assay [1], the target named is Insulin receptor (Homo sapiens) (UniProt P06213). Briefly: Inhibition of INSR (unknown origin) at 10 uM.
Assay [2] concerns the target Serine/threonine-protein kinase B-raf (Homo sapiens) (UniProt P15056). Description: Inhibition of B-RAF (unknown origin) at 10 uM.
Assay [3] has as its target T1, Tyrosine-protein kinase JAK3 (Homo sapiens) (UniProt P52333).
T1 sequence (whole entry): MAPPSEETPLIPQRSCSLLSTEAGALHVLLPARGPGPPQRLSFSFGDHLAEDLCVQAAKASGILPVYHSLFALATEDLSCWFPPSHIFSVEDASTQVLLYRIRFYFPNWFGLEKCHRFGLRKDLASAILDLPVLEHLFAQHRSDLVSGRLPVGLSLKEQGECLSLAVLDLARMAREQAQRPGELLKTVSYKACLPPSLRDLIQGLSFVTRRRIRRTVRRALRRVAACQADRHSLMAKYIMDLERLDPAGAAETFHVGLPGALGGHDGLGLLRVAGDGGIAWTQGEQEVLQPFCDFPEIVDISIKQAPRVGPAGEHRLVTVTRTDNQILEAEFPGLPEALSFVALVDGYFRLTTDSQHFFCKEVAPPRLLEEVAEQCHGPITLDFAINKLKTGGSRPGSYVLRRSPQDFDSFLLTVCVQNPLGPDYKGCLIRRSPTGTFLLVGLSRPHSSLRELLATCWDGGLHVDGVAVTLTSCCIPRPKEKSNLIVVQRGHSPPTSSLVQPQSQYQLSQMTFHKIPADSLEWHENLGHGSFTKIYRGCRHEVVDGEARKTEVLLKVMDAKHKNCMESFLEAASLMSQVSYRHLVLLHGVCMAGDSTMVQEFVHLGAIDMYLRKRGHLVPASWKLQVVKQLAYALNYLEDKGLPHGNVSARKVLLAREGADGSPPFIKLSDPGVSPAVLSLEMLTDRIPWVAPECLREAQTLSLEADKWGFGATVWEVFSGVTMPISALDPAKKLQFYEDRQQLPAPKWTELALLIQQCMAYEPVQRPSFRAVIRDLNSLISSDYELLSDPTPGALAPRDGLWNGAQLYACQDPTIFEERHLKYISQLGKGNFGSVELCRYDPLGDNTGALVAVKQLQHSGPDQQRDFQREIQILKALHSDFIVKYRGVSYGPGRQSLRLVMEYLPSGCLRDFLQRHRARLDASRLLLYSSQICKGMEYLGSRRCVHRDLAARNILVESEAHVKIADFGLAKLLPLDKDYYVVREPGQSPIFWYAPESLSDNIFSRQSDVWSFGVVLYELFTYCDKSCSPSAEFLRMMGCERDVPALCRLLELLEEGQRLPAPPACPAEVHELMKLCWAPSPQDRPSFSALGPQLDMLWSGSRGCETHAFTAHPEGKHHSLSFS
Briefly: Inhibition of JAK3 (unknown origin) at 10 uM.

Assay [4] deals with Serine/threonine-protein kinase pim-1 (Homo sapiens) (UniProt P11309). Description: Inhibition of PIM1 (unknown origin) at 10 uM.
Assay [5] deals with Epithelial discoidin domain-containing receptor 1 (Homo sapiens) (UniProt Q08345). Description: Inhibition of DDR1 (unknown origin) at 10 uM.
Assay [6] has as its target Tyrosine-protein kinase ABL1 (Homo sapiens) (UniProt P00519). Description: Inhibition of ABL (unknown origin) at 10 uM.
Assay [7] concerns the target T2, Aurora kinase A (Homo sapiens) (UniProt O14965).
T2 sequence (whole entry): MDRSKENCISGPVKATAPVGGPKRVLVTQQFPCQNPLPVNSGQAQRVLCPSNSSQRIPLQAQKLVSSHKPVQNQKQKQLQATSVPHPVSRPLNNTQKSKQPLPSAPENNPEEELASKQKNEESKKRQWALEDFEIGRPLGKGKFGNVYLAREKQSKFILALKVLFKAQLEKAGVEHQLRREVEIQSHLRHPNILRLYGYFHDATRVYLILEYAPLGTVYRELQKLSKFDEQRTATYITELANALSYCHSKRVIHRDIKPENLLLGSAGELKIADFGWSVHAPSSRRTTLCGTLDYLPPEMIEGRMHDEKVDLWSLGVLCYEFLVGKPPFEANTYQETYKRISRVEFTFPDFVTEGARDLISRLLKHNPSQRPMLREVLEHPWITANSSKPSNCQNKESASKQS
Description: Inhibition of AurA (unknown origin) at 10 uM.

The target in assay [8] is Rho-associated protein kinase 2 (Homo sapiens) (UniProt O75116). Description: Inhibition of ROCK2 (unknown origin) at 10 uM.
The target in assay [9] is Proto-oncogene tyrosine-protein kinase Src (Homo sapiens) (UniProt P12931). Description: Inhibition of SRC (unknown origin) at 10 uM.
The target in assay [10] is T3, Mitogen-activated protein kinase 8 (Homo sapiens, UniProt P45983). Briefly: Inhibition of JNK1 (unknown origin).
Assay [11] deals with RAC-alpha serine/threonine-protein kinase (Homo sapiens) (UniProt P31749). Description: Inhibition of AKT1 (unknown origin) at 10 uM.
Assay [12] has as its target Platelet-derived growth factor receptor beta (Homo sapiens) (UniProt P09619). Description: Inhibition of PDGFRbeta (unknown origin) at 10 uM.
For assay [13], the target named is Serine/threonine-protein kinase mTOR (Homo sapiens) (UniProt P42345). Description: Inhibition of mTOR (unknown origin) at 10 uM.
Assay [14] addresses Hepatocyte growth factor receptor (Homo sapiens) (UniProt P08581). Briefly: Inhibition of cMET (unknown origin) at 10 uM.
The target of assay [15] is CDK2/Cyclin A2 (Homo sapiens) (UniProt P24941+P20248). Description: Inhibition of CDK2/CyclinA (unknown origin) at 10 uM. Format: protein-complex assay.
Assay [16] concerns the target T3, Mitogen-activated protein kinase 8. Briefly: Inhibition of JNK1 (unknown origin) expressed in HEK293 cells assessed as anisomycin-induced c-Jun phosphorylation at 10 uM incubated for 30 mins by Western blot analysis relative to anisomycin. It counts as cell-based. More on the design: scale not given: the % may be the effect or the level left. On the technique in general: Immunoblotting shows a protein as a band on a membrane.

The target of assay [17] is Receptor tyrosine-protein kinase erbB-2 (Homo sapiens) (UniProt P04626). Briefly: Inhibition of ERBB2 (unknown origin) at 10 uM.
Assay [18] addresses Mast/stem cell growth factor receptor Kit (Homo sapiens) (UniProt P10721). Briefly: Inhibition of cKIT (unknown origin) at 10 uM.
Assay [19] has as its target Death-associated protein kinase 3 (Homo sapiens) (UniProt O43293). Briefly: Inhibition of DAPK3 (unknown origin) at 10 uM.
Assay [20] has as its target Proto-oncogene tyrosine-protein kinase receptor Ret (Homo sapiens) (UniProt P07949). Briefly: Inhibition of RET (unknown origin) at 10 uM.
Assay [21] deals with Vascular endothelial growth factor receptor 2 (Homo sapiens) (UniProt P35968). Description: Inhibition of VEGFR2 (unknown origin) at 10 uM.
Assay [22] addresses Serine/threonine-protein kinase PLK3 (Homo sapiens) (UniProt Q9H4B4). Briefly: Inhibition of PLK3 (unknown origin) at 10 uM.
Assay [23] deals with Serine/threonine-protein kinase PAK 4 (Homo sapiens) (UniProt O96013). Description: Inhibition of PAK4 (unknown origin) at 10 uM.

Sequence of Proto-oncogene tyrosine-protein kinase receptor Ret (Homo sapiens) (P07949 whole entry): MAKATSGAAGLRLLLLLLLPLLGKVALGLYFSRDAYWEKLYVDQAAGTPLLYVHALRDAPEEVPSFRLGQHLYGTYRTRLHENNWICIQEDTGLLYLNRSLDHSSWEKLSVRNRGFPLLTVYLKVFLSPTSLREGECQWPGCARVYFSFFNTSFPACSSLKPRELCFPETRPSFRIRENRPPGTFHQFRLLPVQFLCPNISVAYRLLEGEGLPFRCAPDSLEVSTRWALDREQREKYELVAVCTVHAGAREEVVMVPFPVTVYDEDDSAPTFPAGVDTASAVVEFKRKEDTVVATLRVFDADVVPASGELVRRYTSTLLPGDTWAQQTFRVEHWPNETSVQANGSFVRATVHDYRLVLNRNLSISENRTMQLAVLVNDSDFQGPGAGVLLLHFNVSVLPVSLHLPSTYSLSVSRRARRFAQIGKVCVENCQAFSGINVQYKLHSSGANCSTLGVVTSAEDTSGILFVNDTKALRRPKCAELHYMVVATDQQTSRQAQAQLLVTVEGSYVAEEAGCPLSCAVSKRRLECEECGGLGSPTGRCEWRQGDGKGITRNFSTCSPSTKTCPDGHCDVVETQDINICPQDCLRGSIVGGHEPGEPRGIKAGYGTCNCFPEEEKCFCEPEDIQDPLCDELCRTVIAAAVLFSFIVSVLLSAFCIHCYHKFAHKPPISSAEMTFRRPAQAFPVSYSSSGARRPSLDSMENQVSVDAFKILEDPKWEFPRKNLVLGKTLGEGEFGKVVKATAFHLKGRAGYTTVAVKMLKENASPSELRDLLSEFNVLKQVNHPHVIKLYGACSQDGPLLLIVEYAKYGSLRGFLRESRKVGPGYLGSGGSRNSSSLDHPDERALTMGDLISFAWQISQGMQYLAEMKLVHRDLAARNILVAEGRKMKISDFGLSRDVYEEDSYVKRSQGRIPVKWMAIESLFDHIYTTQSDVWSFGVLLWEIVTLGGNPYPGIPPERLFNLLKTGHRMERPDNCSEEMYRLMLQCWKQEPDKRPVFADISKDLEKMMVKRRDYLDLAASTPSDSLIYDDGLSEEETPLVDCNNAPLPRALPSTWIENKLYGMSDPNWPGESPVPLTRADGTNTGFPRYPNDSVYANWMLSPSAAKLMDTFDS
Sequence of Mast/stem cell growth factor receptor Kit (Homo sapiens) (P10721 whole entry): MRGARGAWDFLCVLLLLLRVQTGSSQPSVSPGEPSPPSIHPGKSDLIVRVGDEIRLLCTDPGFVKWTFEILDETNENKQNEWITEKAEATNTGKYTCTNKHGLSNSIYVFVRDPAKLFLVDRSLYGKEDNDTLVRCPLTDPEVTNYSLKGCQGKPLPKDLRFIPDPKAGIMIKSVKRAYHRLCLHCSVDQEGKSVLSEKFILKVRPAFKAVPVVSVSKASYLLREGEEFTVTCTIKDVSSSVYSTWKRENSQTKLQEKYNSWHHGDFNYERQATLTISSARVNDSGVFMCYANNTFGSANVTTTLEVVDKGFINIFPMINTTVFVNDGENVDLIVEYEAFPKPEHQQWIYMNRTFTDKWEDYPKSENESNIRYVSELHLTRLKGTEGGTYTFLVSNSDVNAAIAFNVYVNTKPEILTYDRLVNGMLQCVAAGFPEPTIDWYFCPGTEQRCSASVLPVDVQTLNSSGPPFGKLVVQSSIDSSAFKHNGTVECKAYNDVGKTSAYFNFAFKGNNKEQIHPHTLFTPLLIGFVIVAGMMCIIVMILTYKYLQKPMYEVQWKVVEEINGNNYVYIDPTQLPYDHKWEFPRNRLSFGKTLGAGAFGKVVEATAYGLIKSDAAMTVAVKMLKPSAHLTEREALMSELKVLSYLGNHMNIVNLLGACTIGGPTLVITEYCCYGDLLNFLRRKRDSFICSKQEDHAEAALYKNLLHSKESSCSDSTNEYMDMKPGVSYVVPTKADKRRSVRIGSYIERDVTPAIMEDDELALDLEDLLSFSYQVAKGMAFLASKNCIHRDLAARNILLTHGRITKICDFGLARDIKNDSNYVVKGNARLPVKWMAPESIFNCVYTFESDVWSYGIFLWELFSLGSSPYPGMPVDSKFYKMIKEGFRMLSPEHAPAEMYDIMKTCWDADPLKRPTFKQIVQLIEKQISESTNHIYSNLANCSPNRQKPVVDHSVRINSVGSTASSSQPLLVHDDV
Sequence of Hepatocyte growth factor receptor (Homo sapiens) (P08581 whole entry): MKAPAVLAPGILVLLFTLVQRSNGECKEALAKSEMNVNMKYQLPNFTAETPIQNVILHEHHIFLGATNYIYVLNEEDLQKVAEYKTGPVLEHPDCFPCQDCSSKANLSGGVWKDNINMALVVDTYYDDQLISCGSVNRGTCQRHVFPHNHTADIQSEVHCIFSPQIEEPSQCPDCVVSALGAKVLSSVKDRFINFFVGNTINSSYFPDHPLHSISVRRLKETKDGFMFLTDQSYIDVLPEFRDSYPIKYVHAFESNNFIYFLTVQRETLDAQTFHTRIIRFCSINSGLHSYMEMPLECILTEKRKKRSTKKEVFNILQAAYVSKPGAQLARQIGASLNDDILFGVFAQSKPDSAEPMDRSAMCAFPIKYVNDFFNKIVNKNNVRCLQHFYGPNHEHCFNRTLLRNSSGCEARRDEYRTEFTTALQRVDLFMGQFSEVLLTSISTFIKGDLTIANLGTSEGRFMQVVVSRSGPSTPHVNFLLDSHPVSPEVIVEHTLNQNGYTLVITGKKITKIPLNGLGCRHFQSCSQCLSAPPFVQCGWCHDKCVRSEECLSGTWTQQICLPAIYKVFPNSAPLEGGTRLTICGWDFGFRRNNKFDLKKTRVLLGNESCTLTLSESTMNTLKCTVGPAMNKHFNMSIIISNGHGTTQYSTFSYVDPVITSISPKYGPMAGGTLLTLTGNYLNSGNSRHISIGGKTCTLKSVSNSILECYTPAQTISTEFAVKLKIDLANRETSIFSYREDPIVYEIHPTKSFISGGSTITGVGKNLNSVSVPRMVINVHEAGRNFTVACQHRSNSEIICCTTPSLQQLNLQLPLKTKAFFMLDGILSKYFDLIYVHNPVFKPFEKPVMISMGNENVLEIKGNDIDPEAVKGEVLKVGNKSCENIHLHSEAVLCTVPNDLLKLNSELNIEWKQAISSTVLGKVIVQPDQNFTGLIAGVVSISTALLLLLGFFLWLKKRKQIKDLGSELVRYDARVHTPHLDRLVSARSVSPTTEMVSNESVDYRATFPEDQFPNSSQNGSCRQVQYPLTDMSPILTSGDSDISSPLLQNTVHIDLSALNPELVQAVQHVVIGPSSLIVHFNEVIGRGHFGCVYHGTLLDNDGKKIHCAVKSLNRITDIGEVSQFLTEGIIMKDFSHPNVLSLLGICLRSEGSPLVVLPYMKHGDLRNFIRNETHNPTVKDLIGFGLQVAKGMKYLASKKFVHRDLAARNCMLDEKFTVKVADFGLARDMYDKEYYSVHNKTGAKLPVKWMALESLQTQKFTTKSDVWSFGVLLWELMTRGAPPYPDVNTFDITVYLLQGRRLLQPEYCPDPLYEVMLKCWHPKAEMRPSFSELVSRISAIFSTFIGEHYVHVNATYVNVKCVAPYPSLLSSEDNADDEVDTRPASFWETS
Sequence of Rho-associated protein kinase 2 (Homo sapiens) (O75116 whole entry, looked up): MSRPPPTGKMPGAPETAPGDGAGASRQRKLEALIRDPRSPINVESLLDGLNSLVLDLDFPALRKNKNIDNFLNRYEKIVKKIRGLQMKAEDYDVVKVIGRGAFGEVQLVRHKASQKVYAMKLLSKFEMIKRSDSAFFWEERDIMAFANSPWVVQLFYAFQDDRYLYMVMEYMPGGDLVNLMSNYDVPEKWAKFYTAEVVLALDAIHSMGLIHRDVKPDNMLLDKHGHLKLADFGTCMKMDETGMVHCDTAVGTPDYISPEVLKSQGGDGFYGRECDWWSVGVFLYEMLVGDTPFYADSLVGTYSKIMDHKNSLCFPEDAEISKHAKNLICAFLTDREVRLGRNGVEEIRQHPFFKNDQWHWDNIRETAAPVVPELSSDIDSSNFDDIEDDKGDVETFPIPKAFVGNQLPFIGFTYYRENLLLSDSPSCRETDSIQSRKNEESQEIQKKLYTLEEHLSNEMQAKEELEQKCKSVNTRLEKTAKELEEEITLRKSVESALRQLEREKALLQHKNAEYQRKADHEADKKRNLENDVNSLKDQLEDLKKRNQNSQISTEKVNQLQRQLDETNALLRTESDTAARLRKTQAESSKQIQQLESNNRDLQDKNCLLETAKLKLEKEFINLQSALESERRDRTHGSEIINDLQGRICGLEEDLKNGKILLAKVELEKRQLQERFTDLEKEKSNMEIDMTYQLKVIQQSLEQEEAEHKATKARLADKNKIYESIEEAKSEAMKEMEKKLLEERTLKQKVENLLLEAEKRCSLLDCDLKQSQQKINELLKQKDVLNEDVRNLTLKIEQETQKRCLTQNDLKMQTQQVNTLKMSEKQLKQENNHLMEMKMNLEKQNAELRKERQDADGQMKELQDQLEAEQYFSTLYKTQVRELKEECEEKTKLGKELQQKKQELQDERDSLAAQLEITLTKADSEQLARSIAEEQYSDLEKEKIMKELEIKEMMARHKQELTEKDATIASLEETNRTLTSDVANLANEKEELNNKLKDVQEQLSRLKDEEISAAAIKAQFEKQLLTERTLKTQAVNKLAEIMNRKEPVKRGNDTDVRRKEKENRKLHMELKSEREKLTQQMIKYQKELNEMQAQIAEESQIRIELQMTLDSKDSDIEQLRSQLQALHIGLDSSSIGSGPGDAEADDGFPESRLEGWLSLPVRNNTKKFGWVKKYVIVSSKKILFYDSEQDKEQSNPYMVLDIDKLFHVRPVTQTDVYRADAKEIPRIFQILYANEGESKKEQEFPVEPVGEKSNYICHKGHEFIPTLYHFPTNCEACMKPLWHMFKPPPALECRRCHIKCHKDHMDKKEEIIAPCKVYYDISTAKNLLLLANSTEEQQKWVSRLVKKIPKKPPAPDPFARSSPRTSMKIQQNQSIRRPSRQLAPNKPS

Turning to `CN1CCN(c2ccc(Nc3ncc4cc(Oc5ccc(F)cc5F)c(=O)n(C)c4n3)cc2)CC1`, the inhibition was 5% in assay [1]; 53% in assay [2]; 41% in [3]; -4% in assay [4]; 100% in [5]; 100% in [6]. Further, the inhibition in [7] is 54%; in assay [8] it was 14%; in [9], 99%; in assay [11], 0%; in [12], 100%; in assay [13], 0%. In addition, the inhibition in assay [14] is 0%; in [15] it was 0%; in assay [17] it was 74%; in [18], 96%; in [19], 12%; in assay [20], 98%. Also, the inhibition was found to be 98% in [21], 1% in assay [22] and 0% in assay [23]. Moreover, the half-maximal inhibitory concentration (IC50) in assay [10] is 3340 nM. Moreover, the Activity in [16] was 76.9%.

Turning to `Cn1c(=O)c(Oc2ccc(F)cc2F)cc2cnc(Nc3ccc(N4CCC(O)CC4)cc3)nc21`, the inhibition is 8% in assay [1]; 61% in [2]; 55% in [3]; 22% in assay [4]; 100% in [5]; 81% in [6]. Besides, the inhibition came to 66% in assay [7]; 12% in assay [8]; 100% in assay [9]; 11% in assay [11]; 100% in [12]; 22% in assay [13]. Further, the inhibition in assay [14] was found to be 11%; in assay [15], 11%; in assay [17] it was 78%; in assay [18], 100%; in assay [19], 0%; in assay [20], 100%. Also, the values for the inhibition in [21], in [22] and in assay [23] were 100%, 33% and 36%, respectively. In assay [10], this compound displayed an IC50 of 3790 nM. Moreover, the Activity in [16] was 57.5%.

As to `Cn1c(=O)c(Oc2c(Cl)cccc2Cl)cc2cnc(NC3CCOCC3)nc21`, the inhibition in [1] came to 2%; in assay [2] it was 7%; in assay [3], 0%; in [4] it was 0%; in assay [5], 33%; in assay [6] it was 0%. The inhibition in assay [7] is 3%; in assay [8], 4%; in [9], 8%; in assay [11], 3%; in [12], 0%; in assay [13], 24%. In addition, the inhibition in assay [14] is 1%; in assay [15], 3%; in assay [17] it was 11%; in [18], 4%; in [19], 0%; in assay [20] it was 2%. The results for the inhibition in [21], in assay [22] and in [23] were 1%, 0% and 14%, respectively. The same compound displayed a concentration for half-maximal inhibition (IC50) in assay [10] of 2480 nM. For the same compound, the Activity in assay [16] amounted to 68%.

As to `Cn1c(=O)c(Oc2ccc(F)cc2F)cc2cnc(NC3CCN(S(C)(=O)=O)CC3)nc21`, the inhibition in assay [1] is 2%; in [2], 49%; in assay [3], 0%; in assay [4] it was 5%; in assay [5], 84%; in [6] it was 8%. Besides, the inhibition stood at 32% in [7]; 6% in [8]; 4% in assay [9]; 0% in [11]; 12% in assay [12]; 19% in assay [13]. For the same compound, the inhibition amounted to 0% in [14]; 23% in assay [15]; 0% in assay [17]; 25% in assay [18]; 2% in [19]; 0% in assay [20]. The inhibition is 24% in [21], 0% in assay [22] and 5% in [23]. This compound had an IC50 in assay [10] of 650 nM. Besides, in assay [16], the Activity worked out at 87.1%.
